Data from patent US9708314B2, “Heterocyclic amide compound” (NISSAN CHEMICAL INDUSTRIES, LTD., priority 2013, dated 2017).

Key:
Format in all cases: in vivo
[1] = tested on: Echinochloa oryzacola Vasing.; assay: Test Example 2: herbicidal activity, application during weed generation in submerged conditions; conditions: Eighteenth Table; application herbicide amount 320 g/ha
From the text: (§1) 5 Herbicidal ratio of 90% or more (almost completely withered) 4 Herbicidal ratio of 70% or more and less than 90% 3 Herbicidal ratio of 40% or more and less than 70% 2 Herbicidal ratio of 20% or more and less than 40% 1 Herbicidal ratio of 5% or more and less than 20% 0 Herbicidal ratio of 5% or less (almost no effect) [Test Example 2] Herbicidal Activity Test by Application During Weed Generation in Submerged Conditions After alluvial soil was placed into 1/10000 are of Wagner pot, water was poured and mixed to form a submerged condition having a water depth of 4 cm. Seeds of Echinochloa oryzacola Vasing., Scirpus juncoides, and Monochoria vaginalis were sowed in a mixed manner in the above pot and the pot was placed in the greenhouse of 25° C. to 30° C. to grow the plants. When Echinochloa oryzacola Vasing., Scirpus juncoides, and Monochoria vaginalis were grown to one leaf stage to two leaf stage, the emulsion agent containing the compound of the present invention prepared in accordance with Formulation Example 2 was diluted with water so as to be a predetermined herbicide amount and the diluted compound was applied to the surface of the water. Three weeks after the herbicide application, effects on each plant were investigated in accordance with the criteria of Test Example 1. A: Echinochloa oryzicola Vasing., B: Scirpus juncoides, C: Monochoria vaginalis, D: Leptochloa chinensis, E: Cyperus difformis, F: Digitaria ciliaris, G: Setaria viridis, H: Echinochloa crus-galli var. crus-galli, I: Avena fatua, J: Alopecurus myosuroides, K: Lolium multiflorum Lam., L: Apera spica-venti., M: Abutilon theophrasti, N: Amaranthus retroflexus, O: Chenopodium album, P: Stellaria media, Q: Galium spurium, R: Veronica persica, a: transplanted Oryza sativa, b: directly sowed Oryza sativa, c: Zea mays, d: Glycine max, e: Triticum aestivum, f: Beta vulgaris ssp. vulgaris, and g: Brassica campestris L. The application herbicide amount (g/ha) means an amount that a concentration is adjusted so that, when an application amount is converted into per hectare (1 ha), the herbicide is applied by the number of grams (g) of the described value.

[2] = tested on: Monochoria vaginalis; assay: as above; conditions: Eighteenth Table; application herbicide amount 320 g/ha
From the text: as §1

[3] = tested on: Scirpus juncoides; assay: as above; conditions: Eighteenth Table; application herbicide amount 320 g/ha
From the text: as §1

[4] = tested on: Abutilon theophrasti; assay: Test Example 4: herbicidal effect by application to foliage (diluvial soil, plastic box); conditions: Application herbicide amount 320 g/ha
Method in brief: (§2)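 Read-out is a 0–5 visual grade of herbicidal ratio (5: ≥90%, almost withered; 0: ≤5%) taken three weeks after treatment. Compound was applied as a diluted emulsion to stem and leaf parts of 14-day greenhouse-grown plants (25° C. to 30° C.) at rates expressed as g/ha.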

[5] = tested on: Alopecurus myosuroides; assay: as above; conditions: Application herbicide amount 320 g/ha
Method in brief: as §2

[6] = tested on: Apera spica-venti.; assay: as above; conditions: Application herbicide amount 320 g/ha
Method in brief: as §2

[7] = tested on: Avena fatua; assay: as above; conditions: Application herbicide amount 320 g/ha
Method in brief: as §2

[8] = tested on: Chenopodium album; assay: as above; conditions: Application herbicide amount 320 g/ha
Method in brief: as §2

[9] = tested on: Digitaria ciliaris; assay: as above; conditions: Application herbicide amount 320 g/ha
Method in brief: as §2

[10] = tested on: Echinochloa crus-galli var. crus-galli; assay: as above; conditions: Application herbicide amount 320 g/ha
Method in brief: as §2

[11] = tested on: Galium spurium; assay: as above; conditions: Application herbicide amount 320 g/ha
Method in brief: as §2

[12] = tested on: Lolium multiflorum Lam.; assay: as above; conditions: Application herbicide amount 320 g/ha
Method in brief: as §2

[13] = tested on: Setaria viridis; assay: as above; conditions: Application herbicide amount 320 g/ha
Method in brief: as §2

[14] = tested on: Beta vulgaris ssp. vulgaris; assay: Test Example 4: effect on crop by application to foliage (diluvial soil, plastic box); conditions: Application herbicide amount 320 g/ha; effect on crop
Method in brief: as §2

[15] = tested on: Brassica campestris L.; assay: as above; conditions: Application herbicide amount 320 g/ha; effect on crop
Method in brief: as §2

[16] = tested on: Glycine max; assay: as above; conditions: Application herbicide amount 320 g/ha; effect on crop
Method in brief: as §2

[17] = tested on: Triticum aestivum; assay: as above; conditions: Application herbicide amount 320 g/ha; effect on crop
Method in brief: as §2

[18] = tested on: Zea mays; assay: as above; conditions: Application herbicide amount 320 g/ha; effect on crop
Method in brief: as §2

[19] = tested on: directly sowed Oryza sativa; assay: as above; conditions: Application herbicide amount 320 g/ha; effect on crop
Method in brief: as §2

SMILES: COc1ccc(Cc2nnc3c(C(=O)Nc4nnc(C)o4)ccc(C(F)(F)F)n23)cc1 [1-069]
- A (Echinochloa oryzicola Vasing.) herbicidal ratio grade [1]: 4 (Herbicidal ratio of 70% or more and less than 90%)
- C (Monochoria vaginalis) herbicidal ratio grade [2]: 4 (Herbicidal ratio of 70% or more and less than 90%)
- B (Scirpus juncoides) herbicidal ratio grade [3]: 4 (Herbicidal ratio of 70% or more and less than 90%)
- M [4]: 3 (Herbicidal ratio of 40% or more and less than 70%)
- J [5]: 2 (Herbicidal ratio of 20% or more and less than 40%)
- L [6]: 4 (Herbicidal ratio of 70% or more and less than 90%)
- I [7]: 2 (Herbicidal ratio of 20% or more and less than 40%)
- O [8]: 5 (Herbicidal ratio of 90% or more (almost completely withered))
- F [9]: 5 (Herbicidal ratio of 90% or more (almost completely withered))
- H [10]: 5 (Herbicidal ratio of 90% or more (almost completely withered))
- Q [11]: 3 (Herbicidal ratio of 40% or more and less than 70%)
- K [12]: 2 (Herbicidal ratio of 20% or more and less than 40%)
- G [13]: 5 (Herbicidal ratio of 90% or more (almost completely withered))
- f [14]: 5 (Herbicidal ratio of 90% or more (almost completely withered))
- g [15]: 3 (Herbicidal ratio of 40% or more and less than 70%)
- c [16]: 1 (Herbicidal ratio of 5% or more and less than 20%)
- e [17]: 1 (Herbicidal ratio of 5% or more and less than 20%)
- b [18]: 0 (Herbicidal ratio of 5% or less (almost no effect))
- d [19]: 3 (Herbicidal ratio of 40% or more and less than 70%)

SMILES: COCC[S+]([O-])c1nnc2c(C(=O)Nc3nnc(C)o3)ccc(C(F)(F)F)n12 (centres unmarked) [1-073]
- A (Echinochloa oryzicola Vasing.) herbicidal ratio grade [1]: 2 (Herbicidal ratio of 20% or more and less than 40%)
- C (Monochoria vaginalis) herbicidal ratio grade [2]: 1 (Herbicidal ratio of 5% or more and less than 20%)
- B (Scirpus juncoides) herbicidal ratio grade [3]: 2 (Herbicidal ratio of 20% or more and less than 40%)
- M [4]: 5 (Herbicidal ratio of 90% or more (almost completely withered))
- J [5]: 2 (Herbicidal ratio of 20% or more and less than 40%)
- L [6]: 3 (Herbicidal ratio of 40% or more and less than 70%)
- I [7]: 3 (Herbicidal ratio of 40% or more and less than 70%)
- O [8]: 5 (Herbicidal ratio of 90% or more (almost completely withered))
- F [9]: 5 (Herbicidal ratio of 90% or more (almost completely withered))
- H [10]: 5 (Herbicidal ratio of 90% or more (almost completely withered))
- Q [11]: 2 (Herbicidal ratio of 20% or more and less than 40%)
- K [12]: 3 (Herbicidal ratio of 40% or more and less than 70%)
- G [13]: 5 (Herbicidal ratio of 90% or more (almost completely withered))
- f [14]: 5 (Herbicidal ratio of 90% or more (almost completely withered))
- g [15]: 3 (Herbicidal ratio of 40% or more and less than 70%)
- c [16]: 0 (Herbicidal ratio of 5% or less (almost no effect))
- e [17]: 3 (Herbicidal ratio of 40% or more and less than 70%)
- b [18]: 5 (Herbicidal ratio of 90% or more (almost completely withered))
- d [19]: 4 (Herbicidal ratio of 70% or more and less than 90%)
